Key:
[1] = biological target: T1, ftFliB (FleBt-FliB) (Salmonella enterica, UniProt Q56106); assay: biochemical
[2] = biological target: T1, ftFliB (FleBt-FliB); assay: UV-vis, EPR, […] Mössbauer, iron and sulfur content; assay type: binding; design: N-terminal His6 and Yersinia enterocolitica FleB residues 54-332 (FleBt) solubility tag kept, fused to FliB; E. coli BL21(DE3); ~76 kDa; about 14-mer; conditions: anaerobically reconstituted protein; CX4CX3CC motif
[3] = biological target: the molecule itself; assay: SEC-MALS; TSK-GEL BioAssist G4SWXL column, buffer A, 0.5 mL/min; MALS with RI and UV 280 nm detectors

With C[S+](CC[C@H](N)C(=O)O)C[C@H]1O[C@@H](n2cnc3c(N)ncnc32)[C@H](O)[C@@H]1O (stereo partly drawn) [SAM, S-adenosylmethionine] the Kd [1] was 10.5 ± 3.41 µM.

In the case of [S]12[Fe]3[S]4[Fe]1[S]1[Fe]2[S]3[Fe]41 [[4Fe-4S] cluster], the “UV-vis, EPR, 57Fe Mössbauer, iron and sulfur content” value [2] is reported as “indicating the presence of one [4Fe-4S] cluster in FliB”.

B1: FleBt-FliB fusion protein (flagellin lysine methyltransferase FliB fused to the C-terminus of truncated FleB) (enzyme)
chain: MKEITVTEPAFVTRFSCSGSACRDHCCKGWKITLDKTTVKKYLASKDTTIRTIAQDHIILLKKNNSHWGEIKLPSALGNCPYLDEDRLCRVQKTLGAKALSHTCSSFPRAHHTYKNEVRNSLSLACPEVTSRILNDPDAMALSEKTIIQQTFNTAPLFPAQQKLLNLFCLSLINHANSSTEAALYALIKFVMYAQKFAKIDDAALGELEQVYAALLEQLQTGVLAQELMNIAPDSKVKTSLVLQMQDYFRSLPLNRGSVILDHYIQCLLRVLTAEEGVSMEQKVSDIESSLARCLQANEQQKNWAFRNLILYKIWENNFPNQPNVDPLRALYIIVAEYAFIKLLTAASVHERGRIEWDDVTNIVYSFHSRSQHNSEVAKNFHRHIETVRTGDDLSMIHLLT
notes: also called ftFliB; source: E. coli BL21 (DE3), purified (HisTrap HP, SEC); copies: 14
For B1, the “stoichiometry N” value [3] was about 14 subunits per oligomer.
